Data reported in patent US9120762B2, “Salts of bicyclo-substituted pyrazolon azo derivatives, preparation method and use thereof” (Jiangsu Hengrui Medicine Co., Ltd., priority 2009, dated 2015).
Where two headings read alike, the source gives them in different places.

Key:
[1] = Hygroscopicity assay, standing 48 hours at 25° C., humidity 79%; type: physicochemical; details: for Percentage of weight gain / hygroscopicity: 48 hours, 25° C., humidity 79%
Experimental: The hygroscopicity test of the compounds of the present disclosure after standing for 48 hours
1. The arid glass weighing bottle with a tap (external diameter is 50 mm, the height is 15 mm) was placed at 25° C.±1° C. suitably in a thermostatic drier (saturated ammonium sulfate solution was laid in the lower part, humidity was 79%) the day before the assay, precise weight was measured as (m1);
2. The above weighing bottle was covered with the compounds of the invention (about 1 g), and the thickness of the compounds were generally 1 mm, precise weight was measured as (m2);
3. The mouth of the weighing bottle was kept open and placed with the tap in the above conditions with constant temperature and humidity for 48 hours;
4. Put the tap back on the bottle, precise weight was measured as (m3)
The degree of hygroscopicity was defined as follows: […]
Deliquesce: turning into liquid by absorbing enough moisture.
High hygroscopicity: the percentage of hygroscopicity weight gain is not less than 15%.
Hygroscopicity: the percentage of hygroscopicity weight gain is less than 15%, but not less than 2%.
Sparing hygroscopicity: the percentage of hygroscopicity weight gain is less than 2%, but not less than 0.2%.
No hygroscopicity or almost no hygroscopicity: the percentage of hygroscopicity weight gain is less than 0.2%.

[2] = Solubility assay in water, 0.1% hydrochloric acid and methanol; type: physicochemical; details: read-out: solubility
Outline: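 Solubility was classed by the solvent volume needed to dissolve 1 g (mL) of solute, from "very soluble" (<1 mL) to "practically insoluble" (not fully dissolved in 10000 mL).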

[3] = Pharmacokinetics assay in Beagle dogs; type: in vivo; details: for Vd/F / AUC / CL/F / half-life / MRT / Cmax / Tmax: male, beagle, dog, plasma, po; for Vd/F: read-out: Apparent Distribution Volume Vz/F; for AUC: read-out: Area Under Curve AUC; for CL/F: read-out: Clearance CL/F (converted); for half-life: read-out: Half-Life t1/2 (converted); for MRT: read-out: Mean Residence Time MRT; for Cmax: read-out: Plasma Conc. Cmax; for Tmax: read-out: Time to peak Tmax
Experimental: The pharmacokinetic behavior of the compounds of the present disclosure was studied and evaluated in Beagle dogs.
12 Healthy adult Beagles dogs, male, were purchased from Suzhou Xishan Drug Research and Development Colo., LTD. License number: SCXK (Suzhou) 2007-0005.
The test compound was diluted with 0.5% sodium carboxymethyl cellulose to 2.5 mg/mL (calculated as the free acid form) of suspension before use.
12 Healthy adult Beagles dogs, male, were divided into 4 groups. After an overnight fast, the dogs were administered intragastrically at a dose of 5.0 mg/kg (calculated as the free acid form), at a volume of 2 mL/kg.
Blood samples (1.2 mL) were taken from vein of forelegs at pre administration and at 0.25, 0.5, 1.0, 1.5, 2.0, 3.0, 5.0, 6.0, 8.0, 12.0, 14.0, 24.0 and 48.0 hours post administration, which were stored in heparinized tubes and centrifuged for 10 minutes at 3,500 rpm. The plasma samples were stored at −20° C. until analysis. The Beagles dogs were fed 2 hours after administration.
50 μL of Beagles dog plasma, obtained at various time points after administration, 20 μL of internal standard solution and 150 μL of methanol was added to result in protein precipitation. Then the mixture was mixed for 1 minute using a vortexer and centrifuged for 5 minutes at 11,000 rpm. 50 μL of the supernatant was analyzed by HPLC-UV.
The compartmental model of pharmacokinetics was fitted for the test compounds and the major pharmacokinetic parameters were calculated in which Cmax and tmax were the actually measured values.

[4] = 0.1% hydrochloric acid, simulated gastric fluid, 0.1% hydrochloric acid
[5] = 5 mg/kg, intragastric, 5 mg/kg (as free acid)
[6] = intragastric, 5 mg/kg (as free acid), 5 mg/kg

Compound: CC1=NN(c2ccc3c(c2)CCCC3)C(=O)/C1=N\Nc1cccc(-c2ccc(C(=O)O)o2)c1O.NCCO.NCCO [Example 7, (Z)-5-(2-hydroxy-3-{N′-[3-methyl-5-oxo-1-(5,6,7,8-tetrahydro-naphthalen-2-yl)-1,5-dihydro-pyrazol-4-ylidene]-hydrazino}-phenyl)-furan-2-carboxylic acid bis-(ethanolamine)]
- Percentage of weight gain [1]: 1.2%
- hygroscopicity [1]: Sparing hygroscopicity (the percentage of hygroscopicity weight gain is less than 2%, but not less than 0.2%)
- hygroscopicity, in words ([1]; comparing to the other salts): less hydroscopic
- solubility [2, 4]: 0.029 mg/mL
- solubility ([2]; methanol, organic solvent or mixture, methanol): 22.4 mg/mL
- solubility ([2]; water): 3.96 mg/mL
- pharmacokinetics, in words ([3]; among the four salts): obviously superior in pharmacokinetics
- Vd/F [3, 5]: 5.72 L/kg
- AUC [3, 5]: 12.2 µg·h/mL
- CL/F [3, 5]: 0.498 L/h/kg
- half-life [3, 5]: 8.24 h
- MRT [3, 5]: 13.3 h
- Cmax [3, 5]: 0.985 µg/mL
- Tmax [3, 5]: 1.2 h

Compound: CC1=NN(c2ccc3c(c2)CCCC3)C(=O)/C1=N\Nc1cccc(-c2ccc(C(=O)O)o2)c1O [Example 8, (Z)-5-(2-hydroxy-3-{N′-[3-methyl-5-oxo-1-(5,6,7,8-tetrahydro-naphthalen-2-yl)-1,5-dihydro-pyrazol-4-ylidene]-hydrazino}-phenyl)-furan-2-carboxylic acid bis-(choline)]
- Percentage of weight gain [1]: 13.9%
- hygroscopicity [1]: Hygroscopicity (the percentage of hygroscopicity weight gain is less than 15%, but not less than 2%)
- solubility [2, 4]: < 0.001 mg/mL
- Area Under Curve AUC [3, 6]: 7.91 µg·h/mL
- Clearance CL/F [3, 6]: 0.879 L/h/kg
- Half-Life t1/2 [3, 6]: 7.67 h
- Plasma Conc. Cmax [3, 6]: 0.6 µg/mL
- Time to peak Tmax [3, 6]: 0.5 h

Compound: CC1=NN(c2ccc3c(c2)CCCC3)C(=O)/C1=N\Nc1cccc(-c2ccc(C(=O)O)o2)c1O [Example 12, (Z)-5-(2-hydroxy-3-{N′-[3-methyl-5-oxo-1-(5,6,7,8-tetrahydro-naphthalen-2-yl)-1,5-dihydro-pyrazol-4-ylidene]-hydrazino}-phenyl)-furan-2-carboxylic acid bis-(trometamol)]
- Percentage of weight gain [1]: 2.71%
- hygroscopicity [1]: Hygroscopicity (the percentage of hygroscopicity weight gain is less than 15%, but not less than 2%)
- Vd/F [3, 5]: 4.86 L/kg
- AUC [3, 5]: 11 µg·h/mL
- CL/F [3, 5]: 0.659 L/h/kg
- half-life [3, 5]: 6.86 h
- MRT [3, 5]: 11.6 h
- Cmax [3, 5]: 0.811 µg/mL
- Tmax [3, 5]: 0.5 h
